Reference: US11891405B2, “Furo[3,4-b]pyrrole-containing BTK inhibitor” (CHIA TAI TIANQING PHARMACEUTICAL GROUP CO., LTD., priority 2018, dated 2024)

Experiments:
EGFR (WT) = EGFR (WT) (Homo sapiens, UniProt P00533); assay: Screening for EGFR inhibitory activity; format: biochemical
Method: 1.2 Screening for EGFR (Epidermal Growth Factor Receptor) Inhibitory Activity
50 ng/μL EGFR (WT) stock solution was diluted with kinase buffer (50 mM HEPES, 10 mM MgCl2, 2 mM DTT, 1 mM EGTA, 0.01% Tween 20), and 6 μL of 1.67× working solution at 0.01336 ng/μL (final concentration: 0.008 ng/μL) was added to each well. Different compounds dissolved in DMSO were added to the wells using a nanoliter pipettor, resulting in the final concentration of 1000 nM to […] (4-fold gradient for 7 concentrations in total), and blank control wells (without enzyme) and negative control wells (with enzyme, plus vehicle DMSO) were set, 2 replicate wells for each well. After enzyme was reacted with the compound or vehicle for 10 min, 5× ATP at 25 μM (final concentration: 5 μM) prepared with kinase buffer was mixed with 5× substrate at 0.5 μM (final concentration: 0.1 μM, ULight-poly GT) at a ratio of 1:1, and the mixture was added to each well at 4 μL/well. After being sealed with a film, the plate was incubated at room temperature for 2 h, then 5 μL of 4×EDTA at 40 mM (final concentration: 10 mM) was added to each well. After the plate was incubated for 5 min at room temperature, 5 μL of 4× detection reagent at 8 nM (final concentration: 2 nM, Eu-anti-phospho-tyrosine antibody) was added to each well, followed by incubation at room temperature for 1 h. The plate was read using a PE Envision multi-functional microplate reader (excitation: 320 nm, emission: 665 nm), and IC50 was calculated by four-parameter fitting.

TEC = molecular target: T1, TEC (Homo sapiens, UniProt P42680); assay: Screening for TEC inhibitory activity; format: biochemical
T1 sequence (P42680 1-631): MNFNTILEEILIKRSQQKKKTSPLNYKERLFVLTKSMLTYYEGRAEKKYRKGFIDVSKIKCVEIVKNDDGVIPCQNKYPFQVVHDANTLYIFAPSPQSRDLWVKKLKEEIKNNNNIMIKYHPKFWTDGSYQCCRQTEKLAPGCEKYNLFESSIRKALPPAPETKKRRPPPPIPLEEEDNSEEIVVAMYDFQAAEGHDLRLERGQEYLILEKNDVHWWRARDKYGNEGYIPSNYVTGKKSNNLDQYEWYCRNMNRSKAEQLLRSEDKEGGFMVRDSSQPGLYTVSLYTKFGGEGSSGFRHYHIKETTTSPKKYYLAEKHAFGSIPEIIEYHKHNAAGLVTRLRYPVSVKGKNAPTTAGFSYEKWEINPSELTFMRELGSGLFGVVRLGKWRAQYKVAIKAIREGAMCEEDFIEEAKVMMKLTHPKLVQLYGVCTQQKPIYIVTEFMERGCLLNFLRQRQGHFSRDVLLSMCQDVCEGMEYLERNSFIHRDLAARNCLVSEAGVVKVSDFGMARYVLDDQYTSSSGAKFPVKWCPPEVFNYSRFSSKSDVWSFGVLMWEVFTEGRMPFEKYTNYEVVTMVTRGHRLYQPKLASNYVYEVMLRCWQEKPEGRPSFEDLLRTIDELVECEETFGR
Method: 1.3 Screening for TEC Inhibitory Activity
50 ng/μL TEC stock solution was diluted with kinase buffer (50 mM HEPES, 10 mM MgCl2, 2 mM DTT, 1 mM EGTA, 0.01% Tween 20), and 6 μL of 1.67× working solution at […] (final concentration: 0.008 ng/μL) was added to each well. Different compounds dissolved in DMSO were added to the wells using a nanoliter pipettor, resulting in the final concentration of 1000 nM to 0.24 nM (4-fold gradient for 7 concentrations in total), and blank control wells (without enzyme) and negative control wells (with enzyme, plus vehicle DMSO) were set. After enzyme was reacted with the compound or vehicle for 30 min, 5×ATP at 50 μM (final concentration: 10 μM) prepared with kinase buffer was mixed with 5× substrate at 0.5 μM (final concentration: 0.1 μM, ULight-poly GT) at a ratio of 1:1, and the mixture was added to each well at 4 μL/well. After being sealed with a film, the plate was incubated at room temperature for 2 h, then 5 μL of 4×EDTA at 40 mM (final concentration: 10 mM) was added to each well. After the plate was incubated for 5 min at room temperature, 5 μL of 4× detection reagent at 8 nM (final concentration: 2 nM, Eu-anti-phospho-tyrosine antibody) was added to each well, followed by incubation at room temperature for 1 h. The plate was read using a PE Envision multi-functional microplate reader (excitation: 320 nm, emission: 665 nm), and IC50 was calculated by four-parameter fitting.

OCI-LY10 cells = assay: In vivo pharmacodynamic study, OCI-LY10 xenograft; design: species or system NOD-SCID mice; conditions: for TGI (%): tumor growth inhibition from tumor weight, 23 days; for TGI (%) / d0 TV Mean ± SD: 50 mg/kg bid i.g.; for d0 TV Mean ± SD: tumor volume at day 0 (grouping); for d21 TV Mean ± SD: tumor volume at day 21, 50 mg/kg bid i.g.; for d23 TV Mean ± SD: tumor volume at day 23, 50 mg/kg bid i.g.
Method: EXPERIMENTAL EXAMPLE 5: IN VIVO PHARMACODYNAMIC STUDY
OCI-LY10 cells were subcutaneously grafted (concentration: 1×10^8/mL×0.1 mL/mice) in NOD-SCID mice at the right side armpit (the inoculated site was shaved upon grafting) under aseptic conditions. After subcutaneous grafting, the animals were grouped when the tumor volume reached about 100-300 mm^3:
Model group: vehicle: 6 mice; I-1: 6 mice, 50 mg/kg, bid, i.g.; I-3: 6 mice, 50 mg/kg, bid, i.g.
The vehicle or compound was administered by intragastric administration at a volume of 10 mL/kg, twice daily, for 23 days. The tumor volume was measured 2-3 times per week, and the mice were weighed at the same time, with the data recorded. Animal behavior was observed daily. After all administration was completed, the animals were executed, stripped of tumors and weighed.
The tumor volume and the tumor growth inhibition were calculated using the following formulas: Tumor volume(TV)=(Length×Width^2)/2. Tumor growth inhibition(TGI)=(1−tumor weight in treatment group/tumor weight in model group)×100%.

EGFR (WT), sequence (P00533 25-1210, species assumed): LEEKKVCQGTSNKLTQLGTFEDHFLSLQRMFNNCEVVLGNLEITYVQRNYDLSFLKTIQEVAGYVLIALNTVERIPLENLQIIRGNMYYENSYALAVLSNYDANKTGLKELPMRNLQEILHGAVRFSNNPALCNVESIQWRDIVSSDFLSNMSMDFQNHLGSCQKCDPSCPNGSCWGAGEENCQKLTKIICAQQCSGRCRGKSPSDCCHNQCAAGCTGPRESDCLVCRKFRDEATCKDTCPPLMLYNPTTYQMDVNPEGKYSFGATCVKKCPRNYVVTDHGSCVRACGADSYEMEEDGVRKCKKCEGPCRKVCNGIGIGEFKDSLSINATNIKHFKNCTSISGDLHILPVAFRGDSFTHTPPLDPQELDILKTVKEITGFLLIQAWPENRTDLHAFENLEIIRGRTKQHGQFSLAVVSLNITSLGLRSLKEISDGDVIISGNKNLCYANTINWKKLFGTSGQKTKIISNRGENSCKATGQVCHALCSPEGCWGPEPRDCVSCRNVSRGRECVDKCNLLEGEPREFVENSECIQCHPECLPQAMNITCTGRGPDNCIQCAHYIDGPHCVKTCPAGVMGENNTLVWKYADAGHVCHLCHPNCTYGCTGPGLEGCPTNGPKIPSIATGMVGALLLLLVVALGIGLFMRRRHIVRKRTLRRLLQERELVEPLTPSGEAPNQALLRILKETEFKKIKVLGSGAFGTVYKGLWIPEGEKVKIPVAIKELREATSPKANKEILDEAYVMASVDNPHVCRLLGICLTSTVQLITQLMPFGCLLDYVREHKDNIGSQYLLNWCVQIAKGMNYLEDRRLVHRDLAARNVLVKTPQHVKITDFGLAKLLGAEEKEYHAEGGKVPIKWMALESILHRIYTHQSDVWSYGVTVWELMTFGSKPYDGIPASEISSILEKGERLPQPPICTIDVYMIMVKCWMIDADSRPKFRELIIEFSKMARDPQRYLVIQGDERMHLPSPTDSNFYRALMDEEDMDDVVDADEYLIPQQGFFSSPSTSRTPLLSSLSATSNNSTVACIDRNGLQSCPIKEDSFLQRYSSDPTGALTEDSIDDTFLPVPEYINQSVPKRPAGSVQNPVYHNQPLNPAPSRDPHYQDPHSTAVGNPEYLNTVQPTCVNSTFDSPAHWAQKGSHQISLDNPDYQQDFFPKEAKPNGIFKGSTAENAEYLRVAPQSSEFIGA

Row | IC50 (EGFR (WT)) [nM] | IC50 (TEC) [nM] | Compound | TGI (%) (OCI-LY10 cells) | d0 TV Mean ± SD (OCI-LY10 cells) [mm^3] | d21 TV Mean ± SD (OCI-LY10 cells) [mm^3] | d23 TV Mean ± SD (OCI-LY10 cells) [mm^3]
1 | > 1000 | 155 | CC#CC(=O)N1[C@@H]2COC[C@@H]2C[C@H]1c1nc(-c2ccc(C(=O)Nc3ccccn3)cc2)c2c(N)nccn12 [Compound I-1, 4-(8-amino-3-((2S,3aR,6aS)-1-(but-2-ynoyl)hexahydro-1H-furo[3,4-b]pyrrol-2-yl)imidazo [1,5-a]pyrazin-1-yl)-N-(pyridin-2-yl)benzamide] | 79.4 | 176 ± 35 | 742 ± 109 | 847 ± 189
2 | 107 | 111 | C=CC(=O)N1[C@@H]2COC[C@@H]2C[C@H]1c1nc(-c2ccc(C(=O)Nc3ccccn3)cc2)c2c(N)nccn12 [Compound I-3, 4-(3-((2S,3AR,6AS)-1-ACRYLOYLHEXAHYDRO-1H-FURO[3,4-B]PYRROL-2-YL)-8-AMINOIMIDAZO [1,5-A]PYRAZIN-1-YL)-N-(PYRIDIN-2-YL)BENZAMIDE] | 84.1 | 177 ± 16 | 645 ± 202 | 647 ± 343
3 | > 1000 | 25 | CC#CC(=O)N1[C@@H]2COC[C@@H]2C[C@H]1c1nc(-c2ccc(C(=O)Nc3cc(C(F)(F)F)ccn3)cc2F)c2c(N)nccn12 [Compound I-4, 4-(8-AMINO-3-((2S,3AR,6AS)-1-(BUT-2-YNOYL)HEXAHYDRO-1H-FURO[3,4-B]PYRROL-2-YL)IMIDAZO[1,5-A]PYRAZIN-1-YL)-3-FLUORO-N-(4-(TRIFLUOROMETHYL)PYRIDIN-2-YL)BENZAMIDE] |  |  |  | 
4 | > 1000 |  | Nc1nccn2c([C@@H]3C[C@H]4COC[C@H]4N3C(=O)C3CC3)nc(-c3ccc(C(=O)Nc4cc(C(F)(F)F)ccn4)cc3F)c12 [Compound I-7, 4-(8-AMINO-3-((2S,3AR,6AS)-1-(CYCLOPROPANECARBONYL)HEXAHYDRO-1H-FURO[3,4-B]PYRROL-2-YL)IMIDAZO[1,5-A]PYRAZIN-1-YL)-3-FLUORO-N-(4-(TRIFLUOROMETHYL)PYRIDIN-2-YL)BENZAMIDE] |  |  |  | 
